Test results as given in the NIST ThermoML archive (doi:10.1016/j.tca.2008.10.017).

Test: molar heat capacity at constant pressure
Conditions: 101.33 kPa, Crystal 2, Small (less than 1 g) adiabatic calorimetry

CCCC[N+](CCCC)(CCCC)CCCC.[I-] [tetrabutylammonium iodide]
Conditions	molar heat capacity at constant pressure [J/K/mol]
5 K	0.875
5.6 K	0.546
5.7 K	0.62
5.82 K	0.735
5.88 K	0.786
6.15 K	1.05
6.33 K	1.24
6.6 K	1.54
6.69 K	1.67
6.89 K	1.87
6.98 K	2.05
7.07 K	2.12
7.26 K	2.39
7.35 K	2.49
7.45 K	2.68
7.54 K	2.82
7.74 K	3.02
8.03 K	3.55
8.14 K	3.66
8.24 K	3.76
8.45 K	4.16
8.55 K	4.34
8.66 K	4.58
8.77 K	4.69
8.87 K	4.87
9.09 K	5.28
9.2 K	5.43
9.42 K	5.78
9.53 K	5.96
9.76 K	6.52
9.87 K	6.76
9.98 K	6.85
10 K	6.91
10.26 K	7.37
10.71 K	8.33
11.16 K	9.2
11.61 K	10.3
12.08 K	11.3
12.55 K	12.5
13.04 K	13.6
13.53 K	14.9
14.03 K	16
14.54 K	17.2
15.05 K	18.56
15.57 K	19.98
16.09 K	21.47
16.61 K	22.94
17.14 K	24.46
17.67 K	25.9
18.2 K	27.48
18.76 K	29
19.31 K	30.77
19.85 K	32.46
20 K	32.91
20.98 K	35.93
22.55 K	40.49
24.16 K	45.21
25.78 K	49.77
27.42 K	54.6
29.07 K	59.44
30 K	62.21
30.73 K	64.36
32.39 K	69.26
34.07 K	74.01
35.76 K	78.8
37.45 K	83.46
39.15 K	87.9
40 K	90.12
40.85 K	92.36
42.56 K	96.45
44.26 K	100.6
45.97 K	104.7
47.72 K	108.8
49.44 K	112.6
50 K	113.7
51.16 K	116.5
52.88 K	120.1
54.61 K	123.5
56.34 K	127.3
58.07 K	131
59.8 K	134.9
60 K	135.4
61.53 K	138.8
63.27 K	142.4
65.01 K	146.4
66.75 K	150
68.49 K	153.6
70 K	156.1
72.19 K	159.7
74.35 K	163.7
76.49 K	167.2
78.63 K	170.6
80 K	172.8
80.76 K	173.7
82.88 K	177.6
84.02 K	179.7
85.33 K	181.8
87.83 K	185.8
89.91 K	189.2
90 K	189.7
91.99 K	192.3
94.06 K	195.1
96.13 K	198.4
98.18 K	201.3
100 K	204.1
100.24 K	204.2
102.48 K	208.5
104.92 K	211.3
107.37 K	214.8
109.82 K	217.8
110 K	217.9
112.27 K	220.9
114.75 K	224.1
117.24 K	227.3
119.7 K	230.1
120 K	230.8
122.11 K	233.2
124.58 K	236.3
127.05 K	239.3
129.51 K	242.1
130 K	242.9
131.98 K	245.1
134.46 K	248.1
136.93 K	251
139.4 K	253.8
140 K	254.4
141.88 K	256.5
144.36 K	259.3
146.84 K	262.3
149.32 K	264.6
150 K	265.4
151.8 K	267.5
154.28 K	270.5
156.76 K	273
159.25 K	275.4
160 K	276.3
161.68 K	277.9
164.17 K	280.8
166.66 K	283.6
169.14 K	286.4
170 K	287.1
171.63 K	288.8
174.12 K	291.3
179.09 K	296.7
180 K	297.8
181.58 K	299.2
184.06 K	302
186.55 K	304.6
189.03 K	307.5
190 K	308.6
191.52 K	310
194 K	312.6
196.48 K	315.8
198.96 K	318.2
200 K	319.4
201.37 K	321.1
203.83 K	324
206.3 K	326.7
208.78 K	329.1
210 K	330.4
211.25 K	332.3
213.73 K	334
216.22 K	337
218.7 K	339.9
220 K	341.7
221.19 K	342.7
223.68 K	345.9
226.17 K	348.6
228.67 K	351.6
230 K	353.2
231.16 K	354.6
233.66 K	357.7
235.16 K	359.3
237.7 K	362.3
238.66 K	363.9
240 K	365.1
241.12 K	366.7
243.63 K	369.8
246.14 K	372.6
248.65 K	375.9
250 K	377.4
251.17 K	379.2
253.68 K	382.1
256.2 K	385.3
258.72 K	388.5
260 K	390.2
261.24 K	392
263.76 K	395.2
266.29 K	398.2
268.81 K	401.5
270 K	403.3
271.34 K	405
273.15 K	407.6
273.87 K	408.1
276.4 K	411.5
278.93 K	415
280 K	416.9
281.43 K	418.6
283.96 K	421.7
286.49 K	425.5
289.02 K	429.5
290 K	430.8
291.54 K	433.4
294.07 K	436.3
296.58 K	439.9
298.15 K	442.5
299.1 K	443.6
300 K	445.2
301.98 K	449.2
305.32 K	453.3
308.64 K	459.7
310 K	460.1
311.93 K	464
315.18 K	468.4
318.42 K	473.1
320 K	475.7
321.63 K	477.8
324.82 K	483
327.99 K	488.3
330 K	492.4
331.13 K	493.9
334.25 K	499.5
337.34 K	505.8
340 K	511
340.41 K	511.9
343.45 K	518.1
346.47 K	524.6
349.45 K	530.9
350 K	532.3
352.15 K	537.6
